Measurements published in patent US9011833B2, “Vitamin E formulations of sulfamide NS3 inhibitors” (priority 2010, dated 2015).
In brackets after ≈: the same amount, converted by molar mass.

Legend:
[1] = in vivo; design: species or system sprague dowley rats; conditions: Sprague-Dawley, rat
[2] = physchem; conditions: aqueous buffer, Compound 34 solubility
[3] = Solubilization of Compound 34 in microemulsion formulation; type: physicochemical; conditions: microemulsion preconcentrate or microemulsion diluted with water
Excerpt: Microemulsion preconcentrate or diluted microemulsion with water is used. The formulation solubilizes the Compound 34 up to 15% by wt. The specific components for formulation are: […]

CC[C@@H]1C[C@]1(NC(=O)[C@@H]1C[C@@]2(CN1C(=O)[C@@H](NC(=O)[C@@H](NC(=O)[C@@H]1CCCCN1C(C)C)C1CCCCC1)C(C)(C)C)C(C)(C)C21CCC1)C(=O)NS(=O)(=O)N1CCCC1 [Compound 34, (5R,8S)-7-[(2S)-2-{[(2S)-2-cyclohexyl-2-({[(2S)-1-isopropylpiperidin-2-yl]carbonyl}amino)acetyl]a-mino}-3,3-dimethylbutanoyl]-N-{(1R,2R)-2-ethyl-1-[(pyrrolidin-1-ylsulfonyl)carbamoyl]cyclo-propyl}-10,10-dimethyl-7-azadispiro[3.0.4.1]decane-8-carboxamide]
bioavailability [1]: 80 to 95%
solubility [2]: 0.03 mg/mL (≈ 35 µM)
solubilized in microemulsion formulation [3]: up to 15 % by wt
